In patent US9579406B2, “Phospholipid ether analogs as agents for detecting and locating cancer, and methods thereof” (Cellectar, Inc., priority 2004, dated 2017):

System: PC3 human prostate cancer
Experiment: Radiotherapy study in PC-3 SCID mouse xenograft model
Format: in vivo
Settings: after treatment
Procedure: PC-3 (human prostate cancer, from ATCC) are maintained in Ham's F-12K media supplemented with 10% fetal bovine serum. Tumor cell suspension (1×10^6 cells in phosphate-buffered saline) is injected s.c. into the right flank of male SCID mice (6-8 weeks, C.B-17/IcrHsd-Prkcd^scid, Harlan). Animals are given free access to food and water, tumor growth and animal weight are monitored. Upon reaching 4-5 mm in diameter, mice will be divided into groups of 6 for therapy study.
Single injection of SF404A at Day 0
Groups: • (1) 5 study groups: 4 treatment+1 control • (2) N=6 per group • (3) 4 acute dose levels: 50, 150, 250 and 500 μCi per mouse • (4) Control group dosed with equivalent mass amount of NM404: 0 μCi per mouse (“cold” NM404)

For `C[N+](C)(C)CCOP(=O)([O-])OCCCCCCCCCCCCCCCCCCc1ccc([125I])cc1` [Compound I-125-NM404], the “time at which treatment and control tumor growth curves separate” value was 4-5 weeks.
